These results are taken from ChEMBL document CHEMBL1121889, “Preparation and analgesic properties of amino acid derivatives of (-)-5,9 alpha-diethyl-2'-hydroxybenzomorphan” (J Med Chem, 1981).

Common to all, as to format: protein assay
In assay [1] the target is T1, Opioid receptor (Rattus norvegicus, UniProt P33533+P34975+P33535). Nature of the assay: Compound was tested for its ability to displace [3H]naloxone from Opioid receptors in absence of NaCl.
Assay [2] concerns the target T1, Opioid receptor. Nature of the assay: Compound was tested for its ability to displace [3H]naloxone from Opioid receptors in presence of NaCl (100 mM).
The target of assay [3] is T1, Opioid receptor. Nature of the assay: Compound was tested for its ability to displace [3H]- naloxone] from Opioid receptors in presence of NaCl (100 mM).
Assay [4] has as its target T1, Opioid receptor. Briefly: Compound was tested for its ability to displace [3H]- naloxone] from Opioid receptors in absence of NaCl.

A value given as a limit tells only on which side of the number the result lay.

`CCC1C2Cc3ccc(O)cc3C1(CC)CCN2C(=O)C(N)CC(C)C` (centres undefined): the 50% inhibitory concentration (IC50) (commonly the midpoint of a concentration-inhibition curve) at Opioid receptor [1] is 1503 nM; on Opioid receptor [2], 6.384 µM.

Take `CC[C@H]1[C@H]2Cc3ccc(O)cc3[C@]1(CC)CCN2`: the values for the IC50 at Opioid receptor [3] and at Opioid receptor [4] were 360 nM and 20 nM, respectively.

Regarding `CCC1C2Cc3ccc(O)cc3C1(CC)CCN2C(=O)C(N)CCCN=C(N)N.Cl` (centres undefined), the IC50 turned out to be 15.5 nM on Opioid receptor [1] and 0.66 µM on Opioid receptor [2].

Regarding `CCC1C2Cc3ccc(O)cc3C1(CC)CCN2C(=O)C(N)CCSC.Cl` (centres undefined), the concentration for half-maximal inhibition (IC50) at Opioid receptor [1] was found to be 301 nM; at Opioid receptor [2] it was 5.586 µM.

For the compound `CCC1C2Cc3ccc(O)cc3C1(CC)CCN2C(=O)CN.Cl` (centres undefined), the IC50 was 287 nM on Opioid receptor [1] and 8.184 µM at Opioid receptor [2].

Consider `CCC1C2Cc3ccc(O)cc3C1(CC)CCN2C(=O)C(N)Cc1ccccc1.Cl` (stereo in doubt; 2d), for which the IC50 on Opioid receptor [1] amounted to 1540 nM; at Opioid receptor [2], 3.35 µM.

As to `CCC1C2Cc3ccc(O)cc3C1(CC)CCN2C(=O)C(N)Cc1ccccc1.Cl` (stereo in doubt; 2e), the IC50 at Opioid receptor [1] is greater than 10000 nM; at Opioid receptor [2], greater than 10 µM.
